Structures are written as SMILES.

Assay [1] can be described thus: Binding affinity to His8-tagged Lactococcus lactis ThiT expressed in Lactococcus lactis NZ9000 cells by intrinsic fluorescence titration assay. Format: cell-based.
Assay [2] can be described thus: Binding affinity to Lactococcus lactis ThiT Gly129Ala mutant.
Assay [3] is described as follows: Binding affinity to His8-tagged Lactococcus lactis ThiT expressed in Lactococcus lactis NZ9000 cells by isothermal […] analysis. Type of assay: cell-based.

For orientation: Kd means the constant that tells how readily two partners part at equilibrium. Regarding `Cc1c(Cc2cnc(C(C)C)nc2N)csc1CCO`, in assay [1], binding was put at a Kd of 0.0136 µM.

For the molecule `CCc1ncc(Cc2csc(CCO)c2C)c(N)n1`, the Kd in assay [1] stood at 0.00504 µM. `Cc1ncc(Cc2csc(CCO)c2C)c(N)n1` [3-DEAZATHIAMINE] had an equilibrium dissociation constant (Kd) in assay [1] of 0.00423 µM. As to `Cc1ncc(C[n+]2csc(CCO)c2C)c(N)n1` [THIAMINE], the results for the equilibrium dissociation constant (Kd) in assay [2] and in assay [1] were 0.0339 µM and 0.000122 µM, respectively.

Take `Cc1c(Cc2cncnc2N)csc1CCO`: the dissociation constant Kd in assay [1] was determined as 1.02 µM. The molecule `Cc1c(Cc2cnc(N)nc2N)csc1CCO` returned a Kd in assay [3] of 2.92 µM.

Turning to `Cc1c(Cc2cnc(C(F)(F)F)nc2N)csc1CCO`, the affinity in assay [1], expressed as Kd, was 0.00848 µM.

Source of the values: ChEMBL document CHEMBL3817821, “Design and synthesis of thiamine analogues to study their binding to the ECF transporter for thiamine in bacteria” (Medchemcomm, 2016).
